Where a name gives a salt, the structure may show the parent alone.
Experiments:
[1] = target: T1, sRAGE (ligand S-100b) (Homo sapiens, UniProt Q15109); assay: ELISA assay: inhibition of sRAGE binding to plate-bound S100b; settings: sRAGE binding to immobilised S100b; concentration at which 50% signal has been inhibited
T1 construct: extracellular domain can be isolated by proteolysis of RAGE to generate soluble RAGE (sRAGE) comprised of the V and C domains
Description: (§1) S100b, β-amyloid and CML (500 ng/100 μL/well) in 100 mM sodium bicarbonate/sodium carbonate buffer (pH 9.8) is loaded onto the wells of a NUNC Maxisorp flat bottom 96-well microtitre plate. The plate is incubated at 4° C. overnight. The wells are aspirated and treated with 50 mM imidazole buffer saline (pH 7.2) (with 1 mM CaCl2/MgCl2) containing 1% bovine serum albumin (BSA) (300 μL/well) for two h at 37° C.
(§2) Test compounds are dissolved in nanopure water (concentration: 10-100 μM). DMSO may be used as co-solvent. 25 μL of test compound solution in 2% DMSO is added, along with 75 μL sRAGE (4.0×10^−4 mg/mL FAC) to each well and samples are incubated for 1 h at 37° C. The wells are washed 3 times with 155 mM NaCl pH 7.2 buffer saline and are soaked 10 seconds between each wash.
(§3) Non-radioactive binding is performed by adding:
(§4) 10 μL Biotinylated goat F(ab′)2 Anti-mouse IgG. (8.0×10^−4 mg/mL, FAC)
(§5) 10 μL Alkaline phosphatase Streptavidin (3×10^−3 mg/mL FAC)
(§6) 10 μL Polyclonal antibody for sRAGE (FAC 6.0×10^−3 mg/mL)
(§7) to 5 mL 50 mM imidazole buffer saline (pH 7.2) containing 0.2% bovine serum albumin and 1 mM CaCl2. The mixture is incubated for 30 minutes at 37° C. 100 μL complex is added to each well and incubation is allowed to proceed at rt for 1 h. Wells are washed 3 times with wash buffer and soaked 10 s between each wash. 100 μL 1 mg/mL (pNPP) in 1 M diethanolamine (pH adjusted to 9.8 with HCl) is added. Color is allowed to develop in the dark for 1 to 2 h at rt. The reaction is quenched with 10 μL of stop solution (0.5 N NaOH in 50% ethanol) and the absorbance is measured spectrophotometrically with a microplate reader at 405 nm.

[2] = target: T2, sRAGE (ligand Carboxymethyl Lysine (CML)) (Homo sapiens, UniProt Q15109); assay: ELISA assay: inhibition of sRAGE binding to plate-bound CML; settings: sRAGE binding to immobilised CML; concentration at which 50% signal has been inhibited
T2 construct: extracellular domain can be isolated by proteolysis of RAGE to generate soluble RAGE (sRAGE) comprised of the V and C domains
Description: as §1, §2, §3, §4, §5, §6, §7

[3] = target: T3, sRAGE (ligand Amyloid-β) (Homo sapiens, UniProt Q15109); assay: ELISA assay: inhibition of sRAGE binding to plate-bound β-amyloid; settings: sRAGE binding to immobilised β-amyloid; concentration at which 50% signal has been inhibited
T3 construct: extracellular domain can be isolated by proteolysis of RAGE to generate soluble RAGE (sRAGE) comprised of the V and C domains
Description: as §1, §2, §3, §4, §5, §6, §7

T1 sequence (Q15109 23-342 limits assumed): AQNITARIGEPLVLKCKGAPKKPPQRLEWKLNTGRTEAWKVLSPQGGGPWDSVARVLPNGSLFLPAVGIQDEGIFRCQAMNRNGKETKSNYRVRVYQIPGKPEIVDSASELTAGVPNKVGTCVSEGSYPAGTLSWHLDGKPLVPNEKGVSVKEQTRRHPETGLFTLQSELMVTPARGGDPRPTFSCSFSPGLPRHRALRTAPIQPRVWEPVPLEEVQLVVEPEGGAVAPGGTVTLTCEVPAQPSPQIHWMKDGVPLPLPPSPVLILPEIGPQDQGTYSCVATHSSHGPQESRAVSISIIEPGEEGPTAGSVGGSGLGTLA
T3 sequence (Q15109 23-342 limits assumed): as above
T2 sequence (Q15109 23-342 limits assumed): as above

For CCN(CC)CCCOc1ccc2[nH]c([C@@H](Cc3ccc(OCc4ccccc4)cc3)NC(=O)OC(C)(C)C)nc2c1 [Example 5, 2-[(1R)-2-(4-Benzyloxyphenyl)-1-tert-butoxycarbonylamino-1-ethyl]-6-(3-diethylamino-1-propoxy)benzimidazole], which IC50 [1] is on record?
Its IC50 is 10 to 20 µM.

And the IC50 [2]?
The IC50 was 5 to 10 µM.

Which IC50 [1] does the source give for CCCCn1c([C@@H](Cc2ccc(OCC)cc2)NC(=O)OC(C)(C)C)nc2ccc(OCCCN(CC)CC)cc21 [Example 8, 2-[(1R)-2-(4-Ethoxyphenyl)-1-(tert-butoxycarbonylamino)-1-ethyl]-3-butyl-5-(3-diethylamino-1-propoxy)benzimidazole] here?
Its IC50 is 5 to 10 µM.

What about the IC50 [3] of the same compound?
The IC50 was 5 to 10 µM.

And the IC50 [2]?
The IC50 was 1 to 5 µM.

Which results are given for CCCCn1c([C@@H](Cc2ccc(OCc3ccccc3)cc2)NC(=O)OC(C)(C)C)nc2ccc(OCCCN(CC)CC)cc21 [Example 1, 2-[(1R)-2-(4-Benzyloxyphenyl)-1-tert-butoxycarbonylamino-1-ethyl]-3-butyl-5-(3-diethylamino-1-propoxy)benzimidazole]?
IC50 [1]: 1 to 5 µM; IC50 [3]: 1 to 5 µM; IC50 [2]: 0.5 to 1 µM

How did the IC50 [1] turn out when CCN(CC)CCCOc1ccc2nc([C@@H](Cc3ccc(OCc4ccccc4)cc3)NC(=O)OC(C)(C)C)n(CCCN(CC)CC)c2c1 [Example 10, 2-[(1R)-2-(4-Benzyloxyphenyl)-1-(tert-butoxycarbonylamino)-1-ethyl]-3-(3-diethylamino-1-propyl)-5-(3-diethylamino-1-propoxy)benzimidazole] was run?
Its IC50 is 1 to 5 µM.

And the IC50 [3]?
The IC50 was 5 to 10 µM.

And the IC50 [2]?
The IC50 was 1 to 5 µM.

What does the source list for CCN(CC)CCCOc1ccc2nc([C@H](N)Cc3ccc(OCc4ccccc4)cc3)n(Cc3ccccc3)c2c1 [Example 14, 2-[(1R)-2-(4-Benzyloxyphenyl)-1-amino-1-ethyl]-3-benzyl-5-(3-diethylamino-1-propoxy)benzimidazole]?
IC50 [1]: 5 to 10 µM; IC50 [3]: 10 to 20 µM; IC50 [2]: 5 to 10 µM

Which IC50 [1] does the source give for CCCn1c([C@H](N)Cc2ccc(OCc3ccccc3)cc2)nc2ccc(OCCCN(CC)CC)cc21 [Example 16, 2-[(1R)-2-(4-Benzyloxyphenyl)-1-amino-1-ethyl]-3-propyl-5-(3-diethylamino-1-propoxy)benzimidazole] here?
Its IC50 is 5 to 10 µM.

And the IC50 [3]?
The IC50 was 10 to 20 µM.

And the IC50 [2]?
The IC50 was 10 to 20 µM.

What does the source list for CCCCn1c([C@@H](Cc2ccc(OCc3ccccc3)cc2)NC(=O)OC(C)(C)C)nc2cc(OCCCN(CC)CC)ccc21 [Example 3, 2-[(1R)-2-(4-Benzyloxyphenyl)-1-tert-butoxycarbonylamino-1-ethyl]-3-butyl-6-(3-diethylamino-1-propoxy)benzimidazole]?
IC50 [1]: 1 to 5 µM; IC50 [3]: 1 to 5 µM; IC50 [2]: 1 to 5 µM

Which results are given for CCCCn1c([C@H](N)Cc2ccc(OCc3ccccc3)cc2)nc2ccc(OCCCN(CC)CC)cc21 [Example 2, 2-[(1R)-2-(4-Benzyloxyphenyl)-1-amino-1-ethyl]-3-butyl-5-(3-diethylamino-1-propoxy)benzimidazoleTrihydrochloride]?
IC50 [1]: 1 to 5 µM; IC50 [3]: 1 to 5 µM; IC50 [2]: 1 to 5 µM

CCN(CC)CCCOc1ccc2nc([C@@H](Cc3ccc(OCc4ccccc4)cc3)NC(=O)OC(C)(C)C)n(CC)c2c1 [Example 11, 2-[(1R)-2-(4-Benzyloxyphenyl)-1-(tert-butoxycarbonylamino)-1-ethyl]-3-ethyl-5-(3-diethylamino-1-propoxy)benzimidazole] was tested. Which IC50 [1] did it give?
Its IC50 is 1 to 5 µM.

What about the IC50 [3] of the same compound?
The IC50 was 1 to 5 µM.

What about the IC50 [2] of the same compound?
Its IC50 is 1 to 5 µM.

With CCCn1c([C@@H](Cc2ccc(OCc3ccccc3)cc2)NC(=O)OC(C)(C)C)nc2ccc(OCCCN(CC)CC)cc21 [Example 15, 2-[(1R)-2-(4-Benzyloxyphenyl)-1-(tert-butoxycarbonylamino)-1-ethyl]-3-propyl-5-(3-diethylamino-1-propoxy)benzimidazole] as the compound, how does the IC50 [1] read?
Its IC50 is 5 to 10 µM.

What about the IC50 [3] of the same compound?
Its IC50 is 5 to 10 µM.

And the IC50 [2]?
Its IC50 is 5 to 10 µM.

For CCN(CC)CCCOc1ccc2[nH]c([C@H](N)Cc3ccc(OCc4ccccc4)cc3)nc2c1 [Example 6, 2-[(1R)-2-(4-Benzyloxyphenyl)-1-amino-1-ethyl]-6-(3-diethylamino-1-propoxy)benzimidazole], which IC50 [1] is on record?
The IC50 was 5 to 10 µM.

And the IC50 [3]?
Its IC50 is 5 to 10 µM.

What about the IC50 [2] of the same compound?
Its IC50 is 1 to 5 µM.

For CCN(CC)CCCOc1ccc2nc([C@@H](Cc3ccc(OCc4ccccc4)cc3)NC(=O)OC(C)(C)C)n(Cc3ccccc3)c2c1 [Example 13, 2-[(1R)-2-(4-Benzyloxyphenyl)-1-(tert-butoxycarbonylamino)-1-ethyl]-3-benzyl-5-(3-diethylamino-1-propoxy)benzimidazole], which IC50 [1] is on record?
Its IC50 is 5 to 10 µM.

What about the IC50 [3] of the same compound?
The IC50 was 5 to 10 µM.

What about the IC50 [2] of the same compound?
The IC50 was 5 to 10 µM.

Which IC50 [1] does the source give for CCCCn1c([C@H](N)Cc2ccc(OCc3ccccc3)cc2)nc2cc(OCCCN(CC)CC)ccc21 [Example 4, 2-[(1R)-2-(4-Benzyloxyphenyl)-1-amino-1-ethyl]-3-butyl-6-(3-diethylamino-1-propoxy)benzimidazole] here?
The IC50 was 1 to 5 µM.

What about the IC50 [3] of the same compound?
The IC50 was 1 to 5 µM.

And the IC50 [2]?
The IC50 was 1 to 5 µM.

What does the source list for CCCCn1c(C(Cc2cccc(OCc3ccccc3)c2)NC(=O)OC(C)(C)C)nc2ccc(OCCCN(CC)CC)cc21 (centres unmarked) [Example 7, 2-[2-(3-Benzyloxyphenyl)-1-(tert-butoxycarbonylamino)-1-ethyl]-3-butyl-5-(3-diethylamino-1-propoxy)benzimidazole]?
IC50 [1]: 1 to 5 µM; IC50 [3]: 1 to 5 µM; IC50 [2]: 1 to 5 µM

Which results are given for CCN(CC)CCCOc1ccc2nc([C@H](N)Cc3ccc(OCc4ccccc4)cc3)n(CCCN(CC)CC)c2c1 [Example 12, 2-[(1R)-2-(4-Benzyloxyphenyl)-1-amino-1-ethyl]-3-(3-diethylamino-1-propyl)-5-(3-diethylamino-1-propoxy)benzimidazole]?
IC50 [1]: 1 to 5 µM; IC50 [3]: 1 to 5 µM; IC50 [2]: 1 to 5 µM

What does the source list for CCCCn1c([C@@H](Cc2ccc(OCCc3ccc(Cl)cc3)cc2)NC(=O)OC(C)(C)C)nc2ccc(OCCCN(CC)CC)cc21 [Example 9]?
IC50 [1]: 0.5 to 1 µM; IC50 [3]: 0.5 to 1 µM; IC50 [2]: 0.5 to 1 µM

Reference: patent publication US20080119534A1, “Benzimidazole Derivatives as Therapeutic Agents” (Trans Tech Pharma, Inc, priority 2001, published 2008)
